Columns and labels:
CDK2/Cyclin E2 = CDK2/Cyclin E2 (Homo sapiens, UniProt P24941); test: CDK2/CyclinE2 enzymatic activity assay (TR-FRET); type: biochemical; conditions: ATP 1 mM final, read-out: CDK2_E1 IC50
Protocol: CDK2/CyclinE2 Enzymatic Activity Assay
(§1) The inhibitory activity of compounds was evaluated in vitro using TR-FRET assay with white 384-well low volume microplate (Greiner Bio-One). CDK2/Cyclin E2 catalyzed phosphorylation of peptide in the presence and absence of compounds was measured and used in IC50 determination. Recombinant protein complex CDK2/Cyclin E2, expressed from insect cell, was purchased from ProQinase. Testing compounds were dissolved in DMSO at 1 mM and tested in 9-dose IC50 mode. The reaction mixture was prepared by mixing CDK2/CyclinE2 (1 nM final), ULight-4E-BP1 (50 nM final, Perkinelmer, TRF0128-D), and ATP (1 mM final) in assay buffer (20 mM of HEPES pH 7.4, 1 mM of EGTA, 0.05% BSA, 0.005% Tween 20, and 1 mM TCEP). The compound of interest in DMSO was added to each well in 3-fold serial dilution by dispenser (TECAN D300E) to make a 9.9 μL of reaction mixture. After 20 minutes preincubation at room temperature, 0.1 μL MgCl2 (10 mM final) was added to initiate the reaction. Following a 45 minutes incubation at 37° C., the reaction was stopped by addition of 2 μL of quenching buffer consisting of Lance detection buffer (Perkinelmer CR97-100C), LANCE Ultra Europium-anti-P-4E-BP1 (Perkinelmer, TRF0216-D), EDTA, and incubate at room temperature for additional 60 minutes in dark. The reaction signal was measured by Envision multimode plate reader (PerkinElmer, 2102-0010). IC50 values were determined by fitting the data to the standard 4 parameters with Hill Slope using GraphPad Prism software.

CDK4/Cyclin D1 = target: T1, CDK4/Cyclin D1 (Homo sapiens, UniProt P11802); test: CDK4/CyclinD1 enzymatic activity assay (TR-FRET); type: biochemical; conditions: ATP 2 mM final, read-out: CDK4_D1 IC50
T1 construct: purchased ProQinase; host or cells: insect cell
T1 sequence (P11802 whole entry): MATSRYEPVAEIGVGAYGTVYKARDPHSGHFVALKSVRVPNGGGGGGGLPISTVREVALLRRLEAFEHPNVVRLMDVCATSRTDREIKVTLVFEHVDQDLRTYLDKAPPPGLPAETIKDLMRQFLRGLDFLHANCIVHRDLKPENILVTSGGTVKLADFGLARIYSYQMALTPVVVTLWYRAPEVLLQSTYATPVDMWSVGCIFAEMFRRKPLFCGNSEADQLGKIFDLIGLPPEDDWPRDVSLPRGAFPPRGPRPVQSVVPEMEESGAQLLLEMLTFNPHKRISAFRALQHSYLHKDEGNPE
T1 sequence (P24385 whole entry partner): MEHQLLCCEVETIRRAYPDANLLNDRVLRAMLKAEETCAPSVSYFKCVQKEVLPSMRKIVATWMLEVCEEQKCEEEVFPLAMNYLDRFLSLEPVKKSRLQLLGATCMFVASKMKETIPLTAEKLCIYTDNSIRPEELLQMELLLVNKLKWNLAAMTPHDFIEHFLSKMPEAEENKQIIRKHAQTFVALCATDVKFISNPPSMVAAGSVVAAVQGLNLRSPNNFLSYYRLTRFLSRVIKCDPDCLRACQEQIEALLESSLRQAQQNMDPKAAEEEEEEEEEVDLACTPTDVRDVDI
Protocol: CDK4/CyclinD1 Enzymatic Activity Assay
as §1, with “Bio-One). CDK4/Cyclin D1” for “Bio-One). CDK2/Cyclin E2”, “complex CDK4/Cyclin D1,” for “complex CDK2/Cyclin E2,”, “mixing CDK4/CyclinD1” for “mixing CDK2/CyclinE2”, “ULight-4E-BP1 (100” for “ULight-4E-BP1 (50”, “ATP (2” for “ATP (1”

OVCAR3 p-RB = test: pRB ICW assay in OVCAR3 cells; type: cell-based; conditions: Homo sapiens, OVCAR-3, 2 hours incubation with compound
Protocol: pRB ICW Assay in OVCAR3 Cells
OVCAR3 cells were maintained in RPMI (Corning, Catalog #: 10-040-CV) supplemented with 10% v/v FBS (Gibco, Catalog #: 26140-079), 1% v/v Penicillin Streptomycin (Gibco, Catalog #15140-122.) OVCAR3 cells grown at log phase were trypsinized, counted, and resuspended in fresh medium to reach a final density of 6.7e4 cells/ml and 75 μL of culture were dispensed into a 384-well plate (Falcon, cat #353962) using Multidrop Combi dispenser (Thermo Scientific). The next day, compounds were dispensed as a 9-point, ½ log serial dilution using a Tecan digital dispenser (D300e), and cells were incubated with compound for 2 hours in a humidified incubator at 37° C. A reference compound at a final concentration of 10 μM was used as a control for maximum inhibition. Each compound was tested in duplicates in each experiment. At the end of the incubation, 25 μl of 16% paraformaldehyde (Electron Microscopy, cat #15710) was slowly added to each well and the plate was incubated at room temperature (RT) for 30 minutes to fix cells. Cells were then permeabilized by incubating with 50 μl/well of wash buffer (1×PBS with 0.1% Triton X-100) 5×5 minutes, followed by 1 hour blocking with 30 μl/well of Odyssey blocking buffer (Li—COR, cat #927-40000), all at RT. Anti-phosphor RB antibody (Cell signaling 8516S) was diluted 1:1000 in Odyssey blocking buffer and 20 μl was added to all wells and incubated overnight in 4° C. with gently rocking. The next day, cells were washed 5×5 min with 50 μl/well of wash buffer, followed with 1 hour incubation with secondary antibody and DRAQ5 diluted in Odyssey blocking buffer (1:500 dilution for secondary antibody and 1:2000 dilution for DRAQ5), 5×5 min washes, and one last wash with water. Plates were dried in 37° C. oven for 5 min and scanned using Li—COR Odyssey CLx imaging system to acquire intensities at 700 and 800 nm channels.

Structure (SMILES) | IC50 (CDK2/Cyclin E2) | IC50 (CDK4/Cyclin D1) | IC50 (OVCAR3 p-RB)
Cc1c(-c2nc(N[C@H]3CCN(S(C)(=O)=O)C[C@H]3C)ncc2F)sc2c1C(=O)NC2(C)C [Example 1, 2-(5-Fluoro-2-(((3R,4S)-3-methyl-1-(methylsulfonyl)piperidin-4-yl)amino)pyrimidin-4-yl)-3,6,6-trimethyl-5,6-dihydro-4H-thieno[2,3-c]pyrrol-4-one] | ≤ 100 nM | ≤ 100 nM | ≤ 100 nM
Cc1c(-c2nc(N[C@H]3CCN(S(C)(=O)=O)C[C@H]3F)ncc2F)sc2c1C(=O)NC2(C)C [Example 2, 2-(5-fluoro-2-(((3R,4S)-3-fluoro-1-(methylsulfonyl)piperidin-4-yl)amino)pyrimidin-4-yl)-3,6,6-trimethyl-5,6-dihydro-4H-thieno[2,3-c]pyrrol-4-one] | ≤ 100 nM | ≤ 100 nM | ≤ 100 nM
Cc1c(-c2nc(NC3CCN(S(C)(=O)=O)CC3)ncc2F)sc2c1C(=O)NC2(C)C [Example 3, 2-(5-fluoro-2-((1-(methylsulfonyl)piperidin-4-yl)amino)pyrimidin-4-yl)-3,6,6-trimethyl-5,6-dihydro-4H-thieno[2,3-c]pyrrol-4-one] | ≤ 100 nM | ≤ 100 nM | ≤ 100 nM
Cc1c(-c2nc(NC3CCN(S(C)(=O)=O)CC3)ncc2F)sc2c1C(=O)NC2 [Example 4, 2-(5-fluoro-2-((1-(methylsulfonyl)piperidin-4-yl)amino)pyrimidin-4-yl)-3-methyl-5,6-dihydro-4H-thieno [2,3-c]pyrrol-4-one] | ≤ 100 nM |  | ≤ 100 nM
Cc1c(-c2nc(N[C@H]3CCN(S(C)(=O)=O)C[C@H]3C)ncc2F)sc2c1C(=O)NC2 [Example 5, 2-(5-Fluoro-2-(((3R,4S)-3-methyl-1-(methylsulfonyl)piperidin-4-yl)amino)pyrimidin-4-yl)-3-methyl-5,6-dihydro-4H-thieno[2,3-c]pyrrol-4-one] | ≤ 100 nM |  | ≤ 100 nM
C[C@@H]1CN(S(C)(=O)=O)CC[C@@H]1Nc1ncc(C(F)(F)F)c(-c2cc3c(s2)C(C)(C)NC3=O)n1 [Example 6, 6,6-Dimethyl-2-(2-(((3R,4S)-3-methyl-1-(methylsulfonyl)piperidin-4-yl)amino)-5-(trifluoromethyl)pyrimidin-4-yl)-5,6-dihydro-4H-thieno[2,3-c]pyrrol-4-one] | ≤ 100 nM | ≤ 100 nM | ≤ 100 nM
C[C@@H]1CN(S(=O)(=O)c2cnn(C)c2)CC[C@@H]1Nc1ncc(C(F)(F)F)c(-c2cc3c(s2)C(C)(C)NC3=O)n1 [Example 7, 6,6-dimethyl-2-(2-(((3R,4S)-3-methyl-1-((1-methyl-1H-pyrazol-4-yl)sulfonyl)piperidin-4-yl)amino)-5-(trifluoromethyl)pyrimidin-4-yl)-5,6-dihydro-4H-thieno[2,3-c]pyrrol-4-one] | ≤ 100 nM | ≤ 100 nM | ≤ 100 nM
C[C@@H]1CN(S(C)(=O)=O)CC[C@@H]1Nc1ncc(C(F)(F)F)c(-c2cc3c(s2)CNC3=O)n1 [Example 18, 2-(2-(((3R,4S)-3-methyl-1-(methylsulfonyl)piperidin-4-yl)amino)-5-(trifluoro-methyl)pyrimidin-4-yl)-5,6-dihydro-4H-thieno[2,3-c]pyrrol-4-one] | ≤ 100 nM |  | 100 to 500 nM
CS(=O)(=O)N1CC[C@H](Nc2ncc(C(F)(F)F)c(-c3cc4c(s3)CNC4=O)n2)[C@H](F)C1 [Example 19, 2-(2-(((3R,4S)-3-fluoro-1-(methylsulfonyl)piperidin-4-yl)amino)-5-(trifluoro-methyl)pyrimidin-4-yl)-5,6-dihydro-4H-thieno[2,3-c]pyrrol-4-one] | ≤ 100 nM |  | ≤ 100 nM
O=C1NCc2sc(-c3nc(N[C@H]4CCN(S(=O)(=O)c5cn[nH]c5)C[C@H]4F)ncc3C(F)(F)F)cc21 [Example 22, 2-(2-(((3R,4S)-1-((1H-pyrazol-4-yl)sulfonyl)-3-fluoropiperidin-4-yl)amino)-5-(trifluoromethyl)pyrimidin-4-yl)-5,6-dihydro-4H-thieno[2,3-c]pyrrol-4-one] | ≤ 100 nM |  | ≤ 100 nM

Source: US20240352029A1, “CDK Inhibitors And Their Use As Pharmaceuticals” (Prelude Therapeutics Incorporated, priority 2023, published 2024)
